Where a SMILES comes first, the peptide text is derived from it. [ ]: non-standard residue; d: D form. The star is where a group is joined. Sta = CC(C)C[C@H](N)[C@@H](O)CC(=O)O; Isovaleryl = CC(C)CC(=O)*
What was measured:
[1] = target: Y. pestis Pla (Yersinia pestis, UniProt P17811); experiment: biochemical
[2] = target: T1, Pla (Yersinia pestis, UniProt P17811); experiment: biochemical
[3] = target: T1, Pla; assay type: biochemical
Target sequence in this assay (P17811 21-312 limits assumed): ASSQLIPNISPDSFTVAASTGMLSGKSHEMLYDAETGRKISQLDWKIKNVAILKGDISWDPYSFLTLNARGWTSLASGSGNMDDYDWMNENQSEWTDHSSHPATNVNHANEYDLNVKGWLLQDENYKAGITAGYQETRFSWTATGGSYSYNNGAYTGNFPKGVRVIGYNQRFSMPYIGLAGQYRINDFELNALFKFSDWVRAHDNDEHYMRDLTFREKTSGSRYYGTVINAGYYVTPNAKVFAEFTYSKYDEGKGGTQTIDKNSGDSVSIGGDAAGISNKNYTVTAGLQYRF

[4] = target: Plasmin (Homo sapiens, UniProt P00747); experiment: Plasmin inhibitory activity counter-screen (coupling enzyme); assay type: biochemical; conditions: z-score = number of standard deviations the enzymatic activity falls below the DMSO non-inhibitory control
[5] = target: T2, tissue plasminogen activator (tPA) (Homo sapiens, UniProt P00750); experiment: tPA plasminogen activator counter-screen (Glu-Plg, S2251); assay type: biochemical; conditions: z-score = number of standard deviations below DMSO control
T2 construct: purchased US Biological, Inc. T5600-30

[6] = target: T3, urokinase type plasminogen activator (uPA) (Homo sapiens, UniProt P00749); experiment: uPA plasminogen activator counter-screen (Glu-Plg, S2251); assay type: biochemical; conditions: z-score = number of standard deviations below DMSO control
T3 construct: purchased US Biological, Inc. U2605-01

[7] = target: T4, cathepsin D (Homo sapiens, UniProt P07339); experiment: Cathepsin D fluorometric counter-screen; assay type: biochemical; conditions: z-score = number of standard deviations below DMSO control
T4 construct: purchased R&D Systems 1014-AS-010

[8] = target: T5, cathepsin E (Homo sapiens, UniProt P14091); experiment: Cathepsin E fluorometric counter-screen; assay type: biochemical; conditions: z-score = number of standard deviations below DMSO control
T5 construct: purchased R&D Systems 1294-AS-010
T5 sequence (P14091 54-396): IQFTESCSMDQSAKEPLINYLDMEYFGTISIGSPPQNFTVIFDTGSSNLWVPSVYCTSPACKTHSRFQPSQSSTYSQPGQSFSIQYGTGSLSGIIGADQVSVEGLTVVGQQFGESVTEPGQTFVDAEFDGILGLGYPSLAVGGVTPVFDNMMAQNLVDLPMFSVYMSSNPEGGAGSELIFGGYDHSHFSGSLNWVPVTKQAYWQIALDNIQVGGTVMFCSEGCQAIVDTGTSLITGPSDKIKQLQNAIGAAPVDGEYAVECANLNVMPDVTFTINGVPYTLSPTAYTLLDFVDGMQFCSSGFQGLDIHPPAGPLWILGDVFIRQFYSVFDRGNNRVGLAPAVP

[9] = target: T6, HIV-1 protease (Human immunodeficiency virus type 1 group M subtype B, UniProt P04585); experiment: HIV-1 protease counter-screen; assay type: biochemical; conditions: % of the enzymatic activity of a DMSO non-inhibitory control
T6 construct: Plasmin, tPA, uPA, Cathepsin D, Cathepsin E, and HIV-1 protease

[10] = Cytotoxicity to HeLa cells in serum-free culture (MTS); conditions: human

T4 sequence (P07339 65-412): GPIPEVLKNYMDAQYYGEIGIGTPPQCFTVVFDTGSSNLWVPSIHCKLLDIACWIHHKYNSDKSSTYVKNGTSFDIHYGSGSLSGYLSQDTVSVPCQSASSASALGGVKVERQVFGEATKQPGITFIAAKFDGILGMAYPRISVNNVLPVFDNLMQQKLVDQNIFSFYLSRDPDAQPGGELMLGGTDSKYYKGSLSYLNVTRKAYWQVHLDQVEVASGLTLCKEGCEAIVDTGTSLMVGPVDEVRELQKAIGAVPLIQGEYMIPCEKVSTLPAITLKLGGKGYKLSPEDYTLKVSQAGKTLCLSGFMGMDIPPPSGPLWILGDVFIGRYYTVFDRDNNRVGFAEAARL
T2 sequence (P00750 36-562): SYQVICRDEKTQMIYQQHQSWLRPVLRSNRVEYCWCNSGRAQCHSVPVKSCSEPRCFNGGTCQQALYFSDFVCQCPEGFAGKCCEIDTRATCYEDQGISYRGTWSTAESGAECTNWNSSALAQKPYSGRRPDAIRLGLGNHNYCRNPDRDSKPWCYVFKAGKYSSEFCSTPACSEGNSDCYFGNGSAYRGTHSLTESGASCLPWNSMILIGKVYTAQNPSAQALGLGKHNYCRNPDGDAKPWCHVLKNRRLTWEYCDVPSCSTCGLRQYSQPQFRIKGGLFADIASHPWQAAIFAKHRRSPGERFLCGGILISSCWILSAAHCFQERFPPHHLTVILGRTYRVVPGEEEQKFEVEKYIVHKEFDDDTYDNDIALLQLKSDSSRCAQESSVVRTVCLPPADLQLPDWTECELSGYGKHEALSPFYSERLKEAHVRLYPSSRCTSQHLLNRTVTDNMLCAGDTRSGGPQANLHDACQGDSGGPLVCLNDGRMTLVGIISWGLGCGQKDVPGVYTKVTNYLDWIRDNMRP
Sequence of Y. pestis Pla (P17811 21-312 limits assumed): as the sequence (P17811 21-312 limits assumed) above
Sequence of Plasmin (P00747 581-810 limits assumed): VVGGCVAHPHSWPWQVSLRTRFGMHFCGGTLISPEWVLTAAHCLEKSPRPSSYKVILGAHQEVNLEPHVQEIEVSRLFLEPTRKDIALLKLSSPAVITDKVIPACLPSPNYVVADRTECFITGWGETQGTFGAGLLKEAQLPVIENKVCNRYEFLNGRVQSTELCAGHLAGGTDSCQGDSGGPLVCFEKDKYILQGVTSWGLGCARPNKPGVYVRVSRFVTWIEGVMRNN
Sequence of Plasmin (P00747 97-580 partner limits assumed): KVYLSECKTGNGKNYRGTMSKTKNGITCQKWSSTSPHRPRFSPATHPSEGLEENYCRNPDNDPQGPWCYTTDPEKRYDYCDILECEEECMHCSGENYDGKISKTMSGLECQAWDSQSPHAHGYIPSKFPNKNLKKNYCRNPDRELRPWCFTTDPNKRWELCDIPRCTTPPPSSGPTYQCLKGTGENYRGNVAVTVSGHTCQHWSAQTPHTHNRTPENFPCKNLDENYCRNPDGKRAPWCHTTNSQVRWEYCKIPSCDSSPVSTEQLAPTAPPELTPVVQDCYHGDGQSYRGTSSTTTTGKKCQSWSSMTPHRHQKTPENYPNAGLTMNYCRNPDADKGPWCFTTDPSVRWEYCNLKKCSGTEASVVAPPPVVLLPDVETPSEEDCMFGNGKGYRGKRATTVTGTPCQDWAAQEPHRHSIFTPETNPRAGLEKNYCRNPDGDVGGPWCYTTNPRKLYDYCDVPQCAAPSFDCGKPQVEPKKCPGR

SMILES: CC(C)[C@H](NC(=O)[C@@H](N)CCCCN)C(=O)O [Lys-Val, reference compound] (H-Lys-Val-OH; C-terminus assumed)
- inhibition at 16000 µM ([1]; read-out: Average inhibition): 60%
- Ki [2]: 8400 µM

SMILES: CC(C)[C@H](NC(=O)[C@@H](N)CCCNC(=N)N)C(=O)O [Arg-Val] (H-Arg-Val-OH; N-terminus and C-terminus assumed)
- Ki [2]: 4800 µM

SMILES: NCCCC[C@H](NC(=O)[C@@H](N)CCCN=C(N)N)C(=O)O [Arg-Lys] (H-Arg-Lys-OH)
- Ki [2]: 900 µM

SMILES: CC(=O)Nc1ccc(S(=O)(=O)Nc2ccccc2Oc2ccccc2)cc1 [E]
- IC50 [1]: 50.4 µM

SMILES: CC(C)CC(=O)N[C@H](C(=O)N[C@H](C(=O)N[C@@H](CC(C)C)[C@@H](O)CC(=O)N[C@@H](C)C(=O)N[C@@H](CC(C)C)[C@@H](O)CC(=O)O)C(C)C)C(C)C [pepstatin] (Isovaleryl-VV[Sta]A[Sta]-OH)
- Inhibitory effect against Pla [3]: no inhibitory effect

SMILES: O=S(=O)(Nc1ccccc1Oc1ccccc1)c1cc(Cl)ccc1Cl [I]
- IC50 [1]: 139 µM

SMILES: NCCCC[C@H](N)C(=O)NCC(=O)O [Lys-Gly] (H-Lys-Gly-OH)
- Ki [2]: 5600 µM

SMILES: O=C(O)CN(CCN(CC(=O)O)CC(=O)O)CC(=O)O [EDTA]
- Inhibitory effect against Pla [3]: enhance activity

SMILES: O=S(=O)(Nc1ccccc1C1=NCCc2ccccc21)c1ccc(Cl)cc1 [D]
- IC50 [1]: 35.8 µM

SMILES: O=C(O)CN(CCOCCOCCN(CC(=O)O)CC(=O)O)CC(=O)O [EGTA]
- Inhibitory effect against Pla [3]: enhance activity

SMILES: COc1ccc(S(=O)(=O)Nc2ccccc2Oc2ccccc2)cc1C [C]
- IC50 [1]: 22 µM

SMILES: O=S(=O)(Nc1cc(Cl)ccc1Oc1ccccc1)c1cccs1 [Compound 3]
- IC50 [1]: 1 µM
- Plasmin Z-Score at 50 μM [4]: 2.5
- tPA Z-Score at 50 μM [5]: 0.3
- uPA Z-Score at 50 μM [6]: 0.5
- Cathepsin-D Z-Score at 50 μM [7]: 0
- Cathepsin-E Z-Score at 50 μM [8]: 0.4
- inhibition at 50 µM [9]: 13%
- CC50 [10]: 49 µM
- selectivity ratio [10]: ~50

SMILES: COc1ccc(S(=O)(=O)Nc2ccccc2Oc2ccccc2)c(OC)c1 [F]
- IC50 [1]: 52.3 µM

SMILES: COC(=O)c1c(C)oc2ccc(N(C(=O)c3ccncc3)S(=O)(=O)c3ccc(F)cc3C)cc12 [A]
- IC50 [1]: 6.6 µM

SMILES: COc1ccc(C)cc1S(=O)(=O)Nc1cc(Cl)ccc1Oc1ccccc1 [G]
- IC50 [1]: 84.2 µM

SMILES: O=S(=O)(Nc1cc(Cl)ccc1Oc1ccccc1)c1ccc2c(c1)OCCO2 [Compound 1]
- IC50 [1]: 4.25 µM
- Plasmin Z-Score at 50 μM [4]: 4.9
- tPA Z-Score at 50 μM [5]: −0.3
- uPA Z-Score at 50 μM [6]: 0.5
- Cathepsin-D Z-Score at 50 μM [7]: −0.2
- Cathepsin-E Z-Score at 50 μM [8]: −0.1
- inhibition at 50 µM [9]: 10%
- CC50 [10]: > 100 µM

SMILES: NC(N)=NCCC[C@H](N)C(=O)NCC(=O)O [Arg-Gly] (H-Arg-Gly-OH)
- Ki [2]: 5200 µM

SMILES: NCCCC[C@H](NC(=O)[C@@H](N)CCCCN)C(=O)O [Lys-Lys]
- Ki [2]: 4500 µM

SMILES: Cc1ccc(S(=O)(=O)Nc2ccccc2C(=O)c2ccccc2)cc1 [H]
- IC50 [1]: 100 µM

SMILES: O=S(=O)(Nc1ccccc1-c1ccccc1)c1ccc(Br)s1 [B]
- IC50 [1]: 8.9 µM

SMILES: O=[N+]([O-])c1ccccc1S(=O)(=O)Nc1cc(Cl)ccc1Oc1ccccc1 [Compound 4]
- IC50 [1]: 9.9 µM
- Plasmin Z-Score at 50 μM [4]: 1.4
- tPA Z-Score at 50 μM [5]: 0.4
- uPA Z-Score at 50 μM [6]: 1
- Cathepsin-D Z-Score at 50 μM [7]: 0.6
- Cathepsin-E Z-Score at 50 μM [8]: 0.9
- inhibition at 50 µM [9]: 11%
- CC50 [10]: 47 µM

SMILES: O=S(=O)(Nc1ccccc1-c1ccccc1)c1cccs1 [Compound 2]
- IC50 [1]: 4.3 µM
- Plasmin Z-Score at 50 μM [4]: 1.8
- tPA Z-Score at 50 μM [5]: 0.5
- uPA Z-Score at 50 μM [6]: 0.5
- Cathepsin-D Z-Score at 50 μM [7]: −1.6
- Cathepsin-E Z-Score at 50 μM [8]: −0.3
- inhibition at 50 µM [9]: 2%
- CC50 [10]: 62 µM

From patent US20120064062A1 (priority 2010, published 2012)
